Source: US8192962B2, “Processes for detecting toxic substances” (Daikin Industries, Ltd., priority 2001, dated 2012)

Tested on: Mitochondria-located protein genes
Assay: DNA chip mRNA expression in yeast, mitochondria-located protein genes (Table 2)
Format: cell-based, Saccharomyces cerevisiae S288C
Settings: cells incubated two hours with the chemical substance
Procedure, shortened: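 Chemical exposure: 2 h, log-phase S. cerevisiae S288C, YPD, 25° C., dose set to inhibit growth without death. Profiling: mRNA labeled by reverse transcription with Cy3- or Cy5-dUTP, hybridized to whole-genome array. Output: fluorescence ratio against untreated culture.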

Measured: The level of expressed mRNA in the presence of chemical substance/The level of expressed mRNA in the absence of chemical substance

COc1cc(CNC(=O)CCCCC=CC(C)C)ccc1O [(12), 8-methyl-N-vanillyl-6-nonenamide]
1.4: yeast gene YAL039C | yeast gene YIL155C
1.5: yeast gene YGR028W
1.0: yeast gene YBL099W | yeast gene YCL057W | yeast gene YDL067C | yeast gene YFL016C | yeast gene YGL018C | yeast gene YGR062C | yeast gene YGR076C | yeast gene YJL096W | yeast gene YJR045C | yeast gene YJR077C
1.1: yeast gene YBR251W | yeast gene YCR046C | yeast gene YCR083W | yeast gene YDR079W | yeast gene YDR231C | yeast gene YDR298C
1.8: yeast gene YDR258C
0.7: yeast gene YBL038W | yeast gene YBR122C | yeast gene YBR185C | yeast gene YHR008C | yeast gene YJL166W
1.9: yeast gene YGR244C
1.3: yeast gene YBR221C | yeast gene YDR178W | yeast gene YER178W
1.2: yeast gene YDL198C
0.8: yeast gene YBR003W | yeast gene YBR044C | yeast gene YBR091C | yeast gene YBR282W | yeast gene YDR347W | yeast gene YEL024W | yeast gene YGL187C | yeast gene YGR082W | yeast gene YJL102W | yeast gene YJL133W | yeast gene YJL180C
0.9: yeast gene YBL022C | yeast gene YBL030C | yeast gene YDL181W | yeast gene YDR377W | yeast gene YGL191W | yeast gene YGR174C
0.6: yeast gene YDR529C | yeast gene YEL039C
2.0: yeast gene YGR008C
